Columns and labels:
G-CSF promoter = assay: G-CSF promoter-luciferase induction by known inducers, clone G 1002 (5637 cells); assay type: cell-based, human; settings: 10.5 hours, serum-containing media; 8.3 ng/ml TNF-alpha, 20 ng/ml PMA, 0.5 ng/ml Interleukin-1 beta, or mixtures as labelled
Excerpt: Cloning of G-CSF sequences is described in Experimental Details, section B-3. In order to correctly fuse the G-CSF upstream sequences to the luciferase start codon, oligonucleotides were synthesized which contain the G-CSF leader sequence from +15 to the ATG (32), and were cloned into pUC19 to create pGUC84 (FIG. 29). […] The G-CSF-oligonucleotide-containing NcoI/ScaI fragment from pGUC84 was then isolated and ligated to the luciferase-containing NcoI/ScaI fragment from pUV100 to create pGUV100 (FIG. 30). Following this, the PstI fragment of the G-CSF promoter was isolated form pJM710 (FIG. 7) and inserted into the PstI site in pGUV100 generating pGUV1(FIG. 31). The rest of the G-CSF promoter clone was added by ligating the G-CSF-luciferase containing SfiI/ScaI fragment from pGUV1 to the appropriate SfiI/ScaI fragment from pJM710, creating the plasmid pGUV2 (FIG. 32). The XbaI fragment from pGUV2 containing the G-CSF-luciferase fusion was then cloned into pUV103 previously digested with XbaI/SpeI, generating pGUV140 (FIG. 33). Finally, a TK-Neo cassette (Section C) was included by ligating the ScaI/XbaI fragment from pGUV140 which contains the G-CSF-luciferase fusion into pTKNEO103 previously digested with ScaI/XbaI, yielding the final vector pGUV150 (FIG. 34).
All the following constructs were transfected into 5637 bladder carcinoma cells either by electroporation using a BRL (Gaithersburg, Md.) Cellporator electroporation device or by lipofection using BRL lipofectin and following the manufacturer's protocol. For electroporation, cells were trypsinized, treated with Soybean trypsin inhibitor (1 mg/ml), washed three times in Dulbecco's modified Eagle's medium (DMEM) without pH indicator, and 1 ml of cell suspension in DMEM was electroporated at room temperature and at a cell density of 5 million cells per ml at a voltage of 250 V and a capacitance of 1180 microFarad with the electroporation device set at low resistance. In previous experiments these parameters had been determined to result in optimal electroporation efficiency. About 15 min after electroporation cells were recovered from the disposable electroporation containers (BRL, Gaithersburg, Md.) and plated in RPMI containing 10% fetal calf serum. 2 days after electroporation 0.4 mg/ml G 418 were added and clonal cell colonies were picked 14-20 days after transfection. Clones were first analysed for luciferase expression using Lysis Buffer 1 without bovine serum albumin (see Section F) and those testing positive expanded further and frozen in liquid nitrogen. Further analysis of 6 clones (G 1002, G 2005, G 2071, G 2085, G 3014, G3031) included Southern blotting, reaction to known inducers, satisfactory attachment to microtiter plates and acceptable standard deviation in multiple luciferase expression assays. Clones G 2005 and G 2085 were derived from 5637 cells lipofected with 100 ug/ml of linearized pGVU150 (FIG. 34), G 3031 descends from cells electroporated with 100 ug/ml of linearized pGVU150, whereas 200 ug/ml of the same plasmid were used to generate G 3014. Cotransfection of circular pGVU140 (FIG. 33) with circular pTKNeo3 (FIG. 19) was used to generate clones G 1002 and G 2071. While G 1002 resulted from co-electroporation of 50 and 5 ug/ml of the two plasmids, G 2071 descends from cells lipofected with 100 and 10 ug.
Cell clones with correctly integrated promoter/reporter constructs were analysed for correct reaction to known transcriptional inducers. […] Both TNF-alpha- and PMA-induction levels of clone G 1002 were influenced by the presence or absence of epidermal growth factor (EGF). […] The 9.3fold induction by PMA in the absence of EGF was reduced to 5.6fold by including EGF in the serum-free incubation mixture. Similar differences were observed, when EGF was substituted by 10% fetal calf serum.

G-CSF mRNA = assay: S1 nuclease protection, G-CSF mRNA in 5637 cells; assay type: cell-based, human; settings: 18 hours, 542 (10, 50, 250 microM), 1255 (20, 100, 500 microM), 1793 (0.25, 1.2, 6.25 microM), 1904 (20, 100 microM)
Experimental: S1 Nuclease protection assays were carried out as described in reference 94.
To further confirm, that compounds that had been identified in a luciferase expression assay using a G-CSF specific reporter cell line would be active in inducing transcription of the endogenous G-CSF gene, cells from the parental cell line 5637 used to construct the reporter cell line were incubated with cycloheximide (25 microg/ml), DMSO (0.5%, solvent control) and low, medium and high concentrations of the compounds 542 (10, 50, 250 microM),1255 (20, 100, 500 microM), 1793(0.25, 1.2, 6.25 microM) and 1904 (20, 100 microM) for 18 hours. RNA was extracted and the concentration of G-CSF, GM-CSF and gamma-actin mRNA was determined by the S1 protection method as described in Materials and Methods. The positions of G-CSF GM-CSF and gamma-actin specific protected fragments are indicated (G, GM, A) at the left side of the gel (FIG. 54).

human G-CSF promoter = assay type: cell-based; settings: Table 2 B) transcriptional inhibitors; G21 cells, 6 hours, high-throughput screen
Excerpt: A human bladder carcinoma cell line (U5637, ATCC number HTB 9) was used for transfection of plasmids containing the human Granulocyte-Colony Stimulating Factor (G-CSF) promoter (see below) and was maintained in RPMI medium supplemented with 10% FCS. For HTP screening, transfected 5637 clones were transferred to a serum free defined medium identical to that used for the NIH/3T3 clones.
The sequences of OL-1, OL-2 and OL-5 recognize the G-CSF promoter region, OL-4 recognizes the first intron/exon junction and OL-3 recognizes sequences within the second exon (32). One of the clones isolated from the leukocyte library using these oligonucleotide probes contains a 3.5 kb SalI-BamHI fragment of G-CSF genomic sequence consisting of 3.3 kb of promoter sequence and two hundred base pairs of the coding region. This fragment was inserted into the vector pGEM-7-Zf (Promega, Madison, Wis.) which had previously been digested with SalI/BamHI, resulting in the vector pJM710 (FIG. 7). pJM710 was then digested with PstI, and the resulting 1.6 kb fragment containing G-CSF upstream sequences and the first 15 bases of the G-CSF leader sequence was inserted into the PstI site of pGEM5-Luci (FIG. 8) to generate pG-Lucl (FIG. 9). This construct was then used for transfection of 5637 human bladder carcinoma cells as described below in section E3. pGEM5-Luci (FIG. 8) had previously been constructed by inserting the […]/SalI fragment from pSVLuci (FIG. 2) containing the luciferase coding sequence and the SV40 late polyadenylation signal into pGEM 5-Zf (Promega, Madison Wis.) digested with XhoI/SalI.
pG-LUC1 (FIG. 9) and pRSVNeo were co-transfected into 5637 human bladder carcinoma cells as described above. Selection of G418 resistant clones was as described above except for using a concentration of 0.1 mg/ml G418. Analysis of cell clones was performed as above except that a known inducer of G-CSF expression (1-5 µg/ml lipopolysaccharide (LPS), E. coli serotype 055:b5, Difco, Detroit, Mich. or Sigma, St. Louis, Mo.) was used in place of dexamethasone.
(§1) Cell plating: Dynatech Microlite 96 well plates were custom pretreated for cell attachment by Dynatech Laboratories, Inc. (Chantilly, Va.). Alternatively, the 96 well plates were treated with 50 µl per well of human fibronectin (hFN, 15 µg/ml in PBS, Collaborative Research, Bedford, Mass.) overnight at 37 C. hFN-treated plates were washed with PBS using an Ultrawash 2 Microplate Washer (Dynatech Labs), to remove excess hFN prior to cell plating. M10, 532, and G21 cells maintained in their respective serum media (with 0.2 mg/ml G418) were washed with PBS, harvested by trypsinization, and counted using a hemocytometer and the Trypan Blue exclusion method according to protocols provided by Sigma, St. Louis, Mo. Chemical Company. Cells were then diluted into serum free defined media (with 0.2 mg/ml G418), and 0.2 ml of cell suspension per well was plated onto Dynatech treated plates (532 and G21) or hFN-treated plates (M10) using a Cetus Pro/Pette (Cetus, Emeryville Calif.). Plates were incubated overnight at 37 C in a humidified 5% CO2 atmosphere.
(§2) Addition of Chemicals to Cells: Chemicals from the Oncogene Science file were dissolved in DMSO at concentrations of 3-30 mg/ml. A liquid handling laboratory work station (RSP 5052, Tecan U.S. Chapel Hill, N.C.) was used to dilute the chemicals (three dilutions; 5 fold, 110 fold, and 726 fold). 10 11 of each dilution were added to each of quadruplicate samples of cells contained in the wells of 96-well Dyantech Microlite Plates. […]

[1] = system: mouse mammary tumor virus (MMTV) promoter; assay type: cell-based; settings: Table 2 B) transcriptional inhibitors; M10 cells, 6 hours, high-throughput screen
Excerpt: NIH/3T3 fibroblast cells (ATCC number CRL 1658) were used for transfection of plasmids containing the mouse mammary tumor virus (MMTV) promoter linked to firefly luciferase coding sequences (see below). Cells were propagated in Dulbecco's modified Eagle's medium (DMEM) obtained from Gibco, Grand Island, N.Y. and supplemented with 10% FCS. For high-throughput (HTP) screening, transfected NIH/3T3 clones were transferred to serum free defined medium consisting of Iscove's modified Eagle's medium (IMEM) and Ham's F12 medium (1:1) supplemented with growth factors, hormones and nutrients as described previously (43).
The firefly luciferase gene was removed from the plant expression plasmid pDO432 (33) (FIG. 1) as a 1.9 kb BamHI fragment and cloned into the BamHI site of pSVL (Pharmacia, Piscataway, N.J.), a mammalian expression vector containing the SV40 promoter. The resulting plasmid (pSVLuci; FIG. 2) was digested with XhoI and SalI to produce a 2.4 kb fragment containing the luciferase coding sequences and the SV40 late polyadenylation site. This fragment was inserted into the XhoI site of pMSG (Pharmacia, Piscataway, N.J.), a eukaryotic expression vector containing the MMTV promoter. The resulting MMTV promoter-luciferase fusion plasmid (pMLuci; FIG. 3) was used to transfect NIH/3T3 cells as described below (section E1). Similar constructs can be made using luciferase vectors from Clontech (Palo Alto, Calif.).
pMluci (FIG. 3) and pSV2Neo, an antibiotic resistance plasmid (34), were co-transfected into NIH/3T3 mouse fibroblast cells using the calcium phosphate precipitation method (15) with a commercially available kit (Pharmacia, Piscataway N.J.). Two days later, cells were transferred to media containing 0.4 mg/ml G418 and were grown for an additional 10-14 days. G418-resistant clones were isolated by standard methods. Once sufficient cell numbers were obtained, clones were analyzed based on several criteria: constitutive luciferase production, induction of luciferase expression by dexamethasone (1 μm, Sigma, St. Louis, Mo.), satisfactory attachment to microtiter plates used in the high-throughput screen (see Section G) and acceptable standard deviation in multiple luciferase expression assays (see below for assay protocol). This analysis was carried out using the luciferase assay conditions described in sections F and G. Of the clones which satisfied the above criteria for the high throuphput screen, one clone, M10, was selected for use.
as §1, §2

[2] = system: human growth hormone promoter; assay type: cell-based; settings: Table 2 B) transcriptional inhibitors; 532 cells, 6 hours, high-throughput screen
Excerpt: A rat pituitary cell line, designated GC, (4, 25) was used for transfection of plasmids containing the human growth hormone promoter (see below) and was maintained in DMEM and Ham's F12 medium (1:1), supplemented with 12.5% FCS. For HTP screening, transfected GC clones were transferred to serum free defined medium consisting of DMEM and Ham's F12 medium (1:1) supplemented with growth factors, hormones and nutrients as described previously (17, 5).
The SalI-XhoI fragment of pSVLuci (FIG. 2) containing the luciferase coding sequences and the SV40 late polyadenylation site was inserted into pUC 8 (Biorad, Richmond, Calif.), which has been linearized by a SmaI/HinCII digestion and ligated to XhoI linkers (New England Biolabs, Beverly, Mass.). The new plasmid thus generated (pUXLuci; FIG. 4) was linearized by XhoI digestion followed by incubation with the Klenow fragment of E. coli DNA polymerase and the four deoxyribonucleotides to fill in the single-stranded ends of the vector. This linear (5.1 KB) form of pUXLuci was then ligated to the filled-in 550 bP HindIII-XbaI fragment of the plasmid phGH:CAT (FIG. 5) (25). Human growth hormone promoter sequences located on the HindIII-XbaI fragment were thus fused to the luciferase coding sequences located on pUXLuci generating the plasmid phGH-Luci (FIG. 6), which was used in transfections of GC cells as described below (Section E2).
phGH-LUCI (FIG. 6) and pRSVNeo, an antibiotic resistance plasmid (14), were co-transfected into GC rat pituitary cells as described above. Selection of G418-resistant cell clones was described above except for using a concentration of 0.2 mg/ml G418. Analysis of the cell clones was performed as above, except that known inducers of hGH expression (10-100 nM rat growth hormone releasing factor (rGRF, Bachem, Torrance, Calif.) and 10 μm forskolin (Sigma, St. Louis, Mo.) were used in place of dexamethasone. One clone, 532, was selected for further use in the high throughput screen.
as §1
Addition of Chemicals to Cells: Chemicals from the Oncogene Science file were dissolved in DMSO at concentrations of 3-30 mg/ml. A liquid handling laboratory work station (RSP 5052, Tecan U.S. Chapel Hill, N.C.) was used to dilute the chemicals (three dilutions; 5 fold, 110 fold, and 726 fold). 10 11 of each dilution were added to each of quadruplicate samples of cells contained in the wells of 96-well Dyantech Microlite Plates. Cell plates were then shaken on a microplate shaker (Dyantech, medium setting, 30 sec.) and incubated for 6 hours at 37 C, 5% CO2.
Bioluminescence Assay: After incubation with OSI-file chemicals, cell plates were washed 3 times with PBS using an Ultrawash 2 Microplate Washer (Dyantech Labs) and 75 µl of Lysis Buffer 2 were added to each well (Lysis Buffer 2 is the same as Lysis buffer 1 exept that the ATP and DTT concentrations were changed to 2.67 mM and 133 mM, respectively). […]

Compound: Interleukin-1 beta: Interleukin-1 beta, known transcriptional inducer
- G-CSF promoter induction, clone G 1002 (G-CSF promoter): 2.6 fold

Compound: Cl.Nc1c2ccccc2nc2ccccc12 [Chemical 1904, 9-Aminoacridine hydrochloride]
- amount of G-CSF mRNA (S1 protection) (G-CSF mRNA): increased mRNA production

Compound: CC12CCC(CC1=O)C2(C)C (centres unmarked) [Chemical 1720]
- GCSF fold inhibition relative to solvent control (human G-CSF promoter): 0.65 fold
- MMTV fold inhibition relative to solvent control [1]: 0.66 fold
- hGH fold inhibition relative to solvent control [2]: 4.76 fold

— patent publication US6376175B1, “Methods of discovering chemicals capable of functioning as gene expression modulators” (OSI Pharmaceuticals, Inc., priority 1989, dated 2002)
